Assay results taken from ChEMBL document CHEMBL3045086, “Two-dimensional quantitative structureactivity relationship study on polyphenols as inhibitors of -glucosidase” (Med Chem Res, 2012).

biological target: Alpha-glucosidase MAL62 (Saccharomyces cerevisiae) (UniProt P07265); experiment: Inhibition of baker's yeast alpha-glucosidase using p-nitrophenyl-alpha-D-glucopyranoside as substrate by spectrophotometry
Sequence (P07265 whole entry): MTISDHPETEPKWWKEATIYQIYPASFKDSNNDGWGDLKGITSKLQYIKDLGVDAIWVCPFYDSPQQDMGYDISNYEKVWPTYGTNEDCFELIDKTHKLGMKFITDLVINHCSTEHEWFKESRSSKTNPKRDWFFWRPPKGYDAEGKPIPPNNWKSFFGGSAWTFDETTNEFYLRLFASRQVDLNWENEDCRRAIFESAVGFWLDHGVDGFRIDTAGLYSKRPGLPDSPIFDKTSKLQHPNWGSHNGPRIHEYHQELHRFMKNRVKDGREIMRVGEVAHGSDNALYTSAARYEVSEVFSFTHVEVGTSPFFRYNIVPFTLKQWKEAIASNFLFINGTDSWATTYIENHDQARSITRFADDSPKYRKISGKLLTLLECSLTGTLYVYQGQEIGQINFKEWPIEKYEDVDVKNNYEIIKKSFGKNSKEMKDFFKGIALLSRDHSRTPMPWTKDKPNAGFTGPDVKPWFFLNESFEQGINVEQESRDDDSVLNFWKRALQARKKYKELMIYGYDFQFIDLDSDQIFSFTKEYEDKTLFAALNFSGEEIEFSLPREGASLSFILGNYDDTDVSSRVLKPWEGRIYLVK

Going from CC(C)=CCc1c(C2CCc3ccc(O)cc3O2)cc2c(c1O)OC(C)(C)C=C2 (centres undefined) to CC(C)=CCc1cc(C2CCc3ccc(O)cc3O2)c(CC=C(C)C)c(O)c1O (centres undefined), the logIC50 falls from 1.42 to 1.08.

First: C=C(C)C(CC=C(C)C)Cc1c(O)cc(O)c2c1OC(c1ccc(O)cc1O)CC2=O (centres undefined)
Second: C=C(C)C(CC=C(C)C)Cc1c(O)cc(OC)c2c1OC(c1ccc(O)cc1O)CC2=O (centres undefined)
The logIC50 of the first is lower: 1.57 for the first, 1.83 for the second.

O=c1c(O)c(-c2ccc(O)c(O)c2)oc2cc(O)cc(O)c12 and O=c1c(O)c(-c2cc(O)c(O)c(O)c2)oc2cc(O)cc(O)c12 are within 0.2 log units of each other in logIC50: 0.845 for the first, 0.699 for the second.

Going from CC(C)=CCc1cc(C(=O)/C=C/c2ccc(O)cc2)c(O)cc1O to CC(C)=CCc1cc(C(=O)/C=C/c2ccc(O)c(O)c2)c(O)cc1O, the logIC50 falls from 1.04 to 0.724.

C=CC(C)(C)c1c(O)cc(O)c2c(=O)c3oc4c5c(c(OCC=C(C)C)cc4c3oc12)OC(C)(C)C=C5 and C=CC(C)(C)c1c(O)cc(O)c2c(=O)c3oc4c(CC=C(C)C)c(O)c(OCC=C(C)C)cc4c3oc12 are within 0.2 log units of each other in logIC50: 1.44 for the first, 1.52 for the second.

Going from CC(C)=CCc1cc(C2CCc3ccc(O)cc3O2)cc(O)c1O (centres undefined) to C=CC(C)(C)c1cc2c(cc1O)OC(c1cc(O)c(O)c(CC=C(C)C)c1C/C=C\C)CC2 (centres undefined), the logIC50 falls from 1.88 to 1.02.

First: O=c1c(-c2ccc(O)cc2)coc2cc(O)ccc12
Second: O=c1c(-c2ccc(O)cc2)coc2cc(O)cc(O)c12
The logIC50 of the first is higher: 1.15 for the first, 0.845 for the second.

COc1ccc(/C=C/C(=O)O)cc1 and CCOC(=O)/C=C/c1ccc(OC)cc1 are within 0.2 log units of each other in logIC50: 1.6 for the first, 1.7 for the second.

Going from O=C1C[C@@H](c2ccc(O)cc2)Oc2cc(O)cc(O)c21 to COc1ccc([C@@H]2CC(=O)c3c(O)cc(O)cc3O2)cc1O, the logIC50 rises from 1.88 to 2.18.

Going from Oc1cc(O)c2cc(O)c(-c3ccc(O)c(O)c3)[o+]c2c1 to O=c1cc(-c2ccc(O)c(O)c2)oc2cc(O)cc(O)c12, the logIC50 rises from 0.602 to 1.32.

Going from C=CC(C)(C)c1c(O)cc(O)c2c(=O)c(O)c(-c3cc(O)c(O)c(CC=C(C)C)c3)oc12 to CC(C)=CCc1cc(-c2oc3cc(O)c(CC=C(C)C)c(O)c3c(=O)c2O)cc(O)c1O, the logIC50 falls from 0.556 to 0.322.

C=C(C)C(CCC(C)(C)O)Cc1c(O)cc(OC)c2c1OC(c1ccc(O)cc1O)CC2=O (centres undefined) and C=C(C)C(CC=C(C)C)Cc1c(O)cc(OC)c2c1OC(c1ccc(OC)cc1O)CC2=O (centres undefined) are within 0.2 log units of each other in logIC50: 2.25 for the first, 2.19 for the second.

OC[C@H]1OC(OC2=C(c3ccc(O)c(O)c3)Oc3cc(O)cc(O)c3C2)[C@@H](O)[C@@H](O)[C@@H]1O (some centres undefined) and OC[C@H]1OC(OC2=C(c3cc(O)c(O)c(O)c3)Oc3cc(O)cc(O)c3C2)[C@@H](O)[C@@H](O)[C@@H]1O (some centres undefined) are within 0.2 log units of each other in logIC50: 1.3 for the first, 1.48 for the second.

First: COC(=O)c1cc(O)c(O)c(O)c1
Second: O=C(O)c1cc(O)c(O)c(O)c1
The logIC50 of the first is higher: 1.06 for the first, 0.716 for the second.

Compared with Oc1cc(O)c2c(c1)OC(c1ccc(O)c(O)c1)C(O)C2 (centres undefined), Oc1cc(O)c2c(c1)OC(c1cc(O)c(O)c(O)c1)C(O)C2 (centres undefined) is lower in logIC50: 2.11 for the first, 1.88 for the second.

O=c1c(O)c(-c2ccc(O)c(O)c2)oc2cc(O)ccc12 and O=c1c(O)c(-c2ccc(O)cc2)oc2cc(O)cc(O)c12 are within 0.2 log units of each other in logIC50: 1.11 for the first, 1.08 for the second.

O=C(O)/C=C/c1ccc(F)cc1 and O=C(O)/C=C/c1ccc(Cl)cc1 are within 0.2 log units of each other in logIC50: 2.43 for the first, 2.59 for the second.

CC1(C)C=Cc2cc(C(=O)/C=C/c3ccc(O)cc3)c(O)cc2O1 and CC1(C)C=Cc2cc(C(=O)/C=C/c3ccc(O)c(O)c3)c(O)cc2O1 are within 0.2 log units of each other in logIC50: 1.09 for the first, 1.28 for the second.

Going from O=c1c(O)c(-c2ccc(O)cc2O)oc2cc(O)cc(O)c12 to O=C(OC1Cc2c(O)cc(O)cc2OC1c1cc(O)c(O)c(O)c1)c1cc(O)c(O)c(O)c1 (centres undefined), the logIC50 falls from 1.6 to 0.301.

First: O=C(O)/C=C/c1cccc(O)c1
Second: COc1cccc(/C=C/C(=O)O)c1
The logIC50 of the first is higher: 3.1 for the first, 2.76 for the second.

First: O=C(O)/C=C/c1ccc(O)cc1
Second: O=C(O)/C=C/c1ccc(Oc2ccccc2)cc1
The logIC50 of the first is lower: 2.3 for the first, 2.64 for the second.

First: COc1cc(O)c(C(C)=C(C)C)c2c1C(=O)CC(c1ccc(O)cc1)O2 (centres undefined)
Second: C=C(C)C(CC=C(C)C)Cc1c(O)cc(O)c2c1OC(c1ccccc1O)CC2=O (centres undefined)
The logIC50 of the first is higher: 2.55 for the first, 1.65 for the second.
